In this experiment the test system is Rhizoctonia solani. In words: Soybean seed treatment test in soil contaminated by Rhizoctonia solani (disease control efficacy). The experiment is classed as in vivo, Rhizoctonia solani on soybean (variety: Natto shoryu). The note with it: carboxamide compound alone, 0.2 g/100 kg of seeds; soybean seed application; cultivated 20 days in soil contaminated by Rhizoctonia solani; efficacy vs non-treated plot. The protocol: A cyclohexanone solution (100microL) containing prescribed amount (weight) of a test compound was applied on seeds of soybean (variety : Natto shoryu) (10 g) by using a rotary apparatus for seed treatment (Seed dresser, manufactured by Hans-Ulrich Hege GmbH).
One day after the application, plastic pot was filled with soil contaminated by Rhizoctonia solani, and the seeds treated with the test compounds were seeded in the soil and cultivated in a glass-greenhouse for 20 days (hereinafter referred to as “treated plot”).
Thereafter, the presence of disease caused by Rhizoctonia solani in the young plants which germinated from each seed was observed and disease severity was calculated according to the following calculation formula (1).
On the other hand, seeds of soybean which were not treated as above were cultivated in the same way as above (hereinafter referred to as “non-treated plot”) and the disease severity in “non-treated plot” was calculated in the same way as the above “treated plot”. On the basis of the above severity of disease in “treated plot” and “non-treated plot”, efficacy in the “treated plot” was evaluated according to the following calculation formula (2).
Calculation formula (1): Disease severity (%)=(number of infected young plants/total number of young plants)×100 […]

Molecules are shown by their SMILES.

For the compound `CC1CC(C)(C)c2cccc(NC(=O)c3cn(C)nc3C(F)F)c21` (centres unmarked) [carboxamide compound (1)], the “efficacy (%)” value stood at 42.1%.

Regarding `Cc1nn(C)c(C)c1C(=O)Nc1cccc2c1C(C)CC2(C)C` (centres unmarked) [carboxamide compound (5)], the “efficacy (%)” value stood at 21.1%.
